In the assay the target is T1, recombinant human NK3 receptor (Homo sapiens, UniProt P29371).
T1 construct: expressed in transfected cells; host or cells: HEK293 cells (transient expression), membranes
T1 sequence (P29371 1-465): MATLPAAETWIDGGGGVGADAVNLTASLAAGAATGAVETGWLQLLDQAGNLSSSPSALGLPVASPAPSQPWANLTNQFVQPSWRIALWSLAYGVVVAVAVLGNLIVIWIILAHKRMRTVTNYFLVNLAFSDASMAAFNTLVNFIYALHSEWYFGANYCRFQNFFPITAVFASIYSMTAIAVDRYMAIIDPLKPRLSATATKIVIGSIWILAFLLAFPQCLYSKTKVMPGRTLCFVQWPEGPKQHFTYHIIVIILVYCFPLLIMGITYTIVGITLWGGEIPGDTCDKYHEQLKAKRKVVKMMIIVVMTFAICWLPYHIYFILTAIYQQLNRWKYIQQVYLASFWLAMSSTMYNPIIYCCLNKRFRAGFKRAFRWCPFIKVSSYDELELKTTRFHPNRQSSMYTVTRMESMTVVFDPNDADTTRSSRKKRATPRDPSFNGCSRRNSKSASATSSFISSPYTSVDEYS
The assay can be described thus: [3H]SR142801 competition binding assay. As to conditions: membranes from HEK293 cells transiently expressing recombinant human NK3 receptor; [3H]SR142801 radioligand; 75 min at RT; Ki by Cheng-Prussoff; read-out: Data Ki (hNK-3 receptor affinity). In outline:
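Membranes from HEK293 cells transiently expressing the receptor, 5 μg protein/well, in 50 mM Tris-HCl pH 7.4 with 4 mM MnCl2, 1 μM phosphoramidon, 0.1% BSA; nonspecific binding defined with 10 μM SB222200. Filtration and scintillation counting; IC50 from Hill fit, Ki by Cheng-Prussoff using saturation-derived KD, duplicates.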

The results in this text go back to patent US8324250B2 (Hoffmann-La Roche Inc., priority 2009, dated 2012).

Each structure is given as a SMILES string.

Broadly, the Ki is the equilibrium dissociation constant of an inhibitor or competing ligand from its target. On to `CC(=O)c1ccc(N2CCN(C(=O)N3CCC(C(=O)N[C@@H](C)c4ccccc4)(c4ccccc4)CC3)CC2)cc1` [Example 207, 1-[4-(4-Acetyl-phenyl)-piperazine-1-carbonyl]-4-phenyl-piperidine-4-carboxylic acid ((S)-1-phenyl-ethyl)-amide], for which the Ki is 36.3 nM. Take `Cc1noc(-c2ccc(C(=O)N3CCC(C(=O)N[C@@H](C)C4CCCCC4)(c4ccccc4)CC3)cc2)n1` [Example 74]: the Ki stood at 1 nM. For the compound `C[C@H](NC(=O)C1(c2ccccc2)CCN(C(=O)C2CCC(c3ccc(Cl)cc3)CC2)CC1)c1ccccc1` (stereo partly drawn) [Example 3, 1-[4-(4- Chlorophenyl)cyclohexanecarbonyl]-4-phenyl-piperidine-4-carboxylic acid ((S)-1-phenyl-ethyl)-amide], the Ki was 48.2 nM.

As for `C[C@H](NC(=O)C1(c2ccccc2)CCN(C(=O)N2CCN(c3ccc(C#N)cn3)CC2)CC1)c1ccccc1` [Example 227, 1-[4-(5-Cyano-pyridin-2-yl)-piperazine-1-carbonyl]-4-phenyl-piperidine-4-carboxylic acid ((S)-1-phenyl-ethyl)-amide], the Ki stood at 24.9 nM. For the compound `O=C(c1ccc(-c2ccc(F)cc2)cc1)N1CCC(C(=O)NCC2CCCCC2)(c2ccc(F)cc2)CC1` [Example 142, 1-(4′-Fluoro-biphenyl-4-carbonyl)-4-(4-fluoro-phenyl)-piperidine-4-carboxylic acid cyclohexylmethyl-amide], the Ki stood at 38.2 nM. For the compound `C=C(C)CC1(C(=O)N[C@@H](C)c2ccc(F)cc2)CCN(C(=O)c2ccc(-c3ccc(F)cc3)cc2)CC1` [Example 113, 1-(4′-Fluoro-biphenyl-4-carbonyl)-4-(2-methyl-allyl)-piperidine-4-carboxylic acid [(S)-1-(4-fluoro-phenyl)-ethyl]-amide], the Ki came out at 35.6 nM. `C[C@H](NC(=O)C1(c2ccccc2)CCN(C(=O)c2csc(-c3ccncc3)n2)CC1)c1ccccc1` [Example 27, 4-Phenyl-1-(2-pyridin-4-yl-thiazole-4-carbonyl)-piperidine-4-carboxylic acid ((S)-1-phenyl-ethyl)-amide]: the Ki came to 76.5 nM. As for `CN(Cc1ccc(F)cc1)C(=O)C1(c2ccccc2)CCN(C(=O)c2ccc(N3CCS(=O)(=O)CC3)cc2)CC1` [Example 106, 1-[4-(1,1-Dioxo-1λ6-thiomor-pholin-4-yl)-benzoyl]-4-phenyl-piperidine-4-carboxylic acid (4-fluoro-benzyl)-methyl-amide], the figure is 56.3 nM. Regarding `C[C@H](NC(=O)C1(c2ccc(F)cc2)CCN(C(=O)c2ccc(-c3ccc(F)cc3)cc2)CC1)c1cccc(F)c1` [Example 129, 1-(4′-Fluoro-biphenyl-4-carbonyl)-4-(4-fluoro-phenyl)-piperidine-4-carboxylic acid [(S)-1-(3-fluoro-phenyl)-ethyl]-amide], the Ki came out at 12 nM.

In the case of `C[C@H](NC(=O)C1(C2CCCC2)CCN(C(=O)c2ccc(-c3ccc(F)cc3)cc2)CC1)c1ccc(F)cc1` [Example 110, 4- Cyclopentyl-1-(4′-fluoro-biphenyl-4-carbonyl)-piperidine-4-carboxylic acid [(S)-1-(4-fluoro-phenyl)-ethyl]-amide], the Ki came to 52.2 nM. With `O=C(N1CCN(c2ccc(F)cc2)CC1)N1CCC(C(=O)NC2(c3ccc(F)cc3)CC2)(c2ccc(F)cc2)CC1` [Example 174], the Ki was 24 nM. As for `C[C@H](NC(=O)C1(c2ccccc2)CCN(C(=O)c2ccc(-c3ccccc3)nc2)CC1)c1ccccc1` [Example 56], the figure is 20.6 nM.

For `C[C@H](NC(=O)C1(c2ccccc2)CCN(C(=O)c2ccc(N3CCS(=O)(=O)CC3)cc2)CC1)c1ccc(Cl)cc1` [Example 101, 1-[4-(1,1-Dioxo-1λ6-thiomor-pholin-4-yl)-benzoyl]-4-phenyl-pipendine-4-carboxylic acid [(S)-1-(4-chloro-phenyl)-ethyl]-amide], the Ki was found to be 17.4 nM.

`Cc1noc(-c2ccc(C(=O)N3CCC(C(=O)N[C@@H](C)c4ccc(F)cc4)(C4CCCCC4)CC3)cc2)n1` [Example 109, 4-Cyclohexyl-1-[4-(3-methyl-[1,2,4]oxa-diazol-5-yl)-benzoyl]-piperidine-4-carboxylic acid [(S)-1-(4-fluoro-phenyl)-ethyl]-amide]: the Ki stood at 82 nM. As for `C[C@H](NC(=O)C1(c2ccccc2)CCN(C(=O)N2CCN(c3ccc(F)cc3)CC2)CC1)c1ccccc1` [Example 213, 1-[4-(4-Fluoro-phenyl)-piperazine-1-carbonyl]-4-phenyl-piperidine-4-carboxylic acid ((S)-1-phenyl-ethyl)-amide], the Ki was determined as 8.8 nM. Turning to `C[C@H](NC(=O)C1(c2ccccc2)CCN(C(=O)C2CCN(c3ccc(C#N)cn3)CC2)CC1)c1ccccc1` [Example 61, 1-(5′-Cyano-3,4,5,6-tetrahydro-2H-[1,2′]bipyrid-inyl-4-carbonyl)-4-phenyl-piperidine-4-carboxylic acid ((S)-1-phenyl-ethyl)-amide], the Ki came out at 37.9 nM. For `Cc1noc(-c2ccc(C(=O)N3CCC(C(=O)N[C@@H](C)c4ccc(F)cc4)(C4CCCC4)CC3)cc2)n1` [Example 111, 4- Cyclopentyl-1-[4-(3-methyl-[1,2,4]oxa-diazol-5-yl)-benzoyl]-piperidine-4-carboxylic acid [(S)-1-(4-fluoro-phenyl)-ethyl]-amide], the Ki stood at 39.8 nM. As for `Cc1noc(-c2ccc(C(=O)N3CCC(C(=O)NC(C)(C)c4ccccc4)(c4ccccc4)CC3)cc2)n1` [Example 116, 1-[4-(3-Methyl-[1,2,4]oxadiazol-5-yl)-benzoyl]-4-phenyl-piperidine-4-carboxylic acid (1-methyl-1-phenyl-ethyl)-amide], the figure is 22.6 nM.

With `C[C@H](NC(=O)C1(c2ccccc2)CCN(C(=O)c2ccc(N3CCOCC3)cc2)CC1)c1ccccc1` [Example 8, 1-(4-Morpholin-4-yl-benzoyl)-4-phenyl-piperidine-4-carboxylic acid ((S)-l-phenyl-ethyl)-amide], the Ki was 84.4 nM. Next, `CC(C)CC1(C(=O)N[C@@H](C)c2ccc(F)cc2)CCN(C(=O)c2ccc(-c3ccc(F)cc3)cc2)CC1` [Example 122, 1-(4′-Fluoro-biphenyl-4-carbonyl)-4-isobutyl-piperidine-4-carboxylic acid [(S)-1-(4-fluoro-phenyl)-ethyl]-amide]: 25.7 nM; `Cc1noc(-c2ccc(C(=O)N3CCC(C(=O)N[C@@H](C)c4ccc(F)cc4)(c4ccccc4)CC3)cn2)n1` [Example 82, 1-[6-(3-Methyl-[1,2,4]oxa-diazol-5-yl)-pyridine-3-carbonyl]-4-phenyl-piperidine-4-carboxylic acid [(S)-1-(4-fluoro-phenyl)-ethyl]-amide]: 5.3 nM. As for `CC(C)C(NC(=O)C1(c2ccc(F)cc2)CCN(C(=O)c2ccc(-c3ccc(F)cc3)cc2)CC1)c1ccccc1` (centres unmarked) [Example 143, 1-(4′-Fluoro-biphenyl-4-carbonyl)-4-(4-fluoro-phenyl)-piperidine-4-carboxylic acid (2-methyl-1-phenyl-propyl)-amide], the figure is 6.9 nM.

Take `C[C@H](NC(=O)C1(c2ccccc2)CCN(C(=O)N2CCN(C3CCCCC3)CC2)CC1)c1ccccc1` [Example 230, 1-(4-Cyclohexyl-piperazine-1-carbonyl)-4-phenyl-piperidine-4-carboxylic acid ((S)-1-phenyl-ethyl)-amide]: the Ki worked out at 22.1 nM.
